Patent US4816490A, “Novel therapeutic use of a derivative of indane dione and the pharmaceutical compositions intended for this use” (priority 1987, dated 1989)

How the values were obtained:
[1] = system: hyperlipidaemia induced by TRITON WR 1339; assay: Hyperlipidaemia induced by TRITON WR 1339 in the Wistar rat; format: in vivo; details: for Dose dependence of hypolipaemiant activity: 250 and 500 mg/kg
Method: Feeding by standard Regimen UAR A04
Drinking water ad libitum
6 animals per dose in a cage in MAKROLON of 60×40 cm filled with shavings of wood.
10 mn after: administration of the test compound
6 hours after: 1st sampling of the blood at the retro-orbital sinus
Total cholesterol by the colorimetric method of RICHMOND
Cholesterol in HDL by the colorimetric method of RICHMOND after precipitation by CONCANAVALIN A
Cholesterol in LDL by the colorimetric method of RICHMOND after precipitation by CONCANAVALIN A
Total lipids by the Zollner's sulphophosphovanillic method
Triglycerids by the BUCOLO's enzymatic method.

[2] = system: hyperlipidaemia / atheroma in Wistar rats on atheromatogenous regimen; assay: Biochemical testings in rats on atheromatogenous (cholesterol-rich) diet, including atheroma risk ratios; format: in vivo, rat
Text: The method utilized for the test was that, slightly altered of Aubert D. Feraud J. C., Lacaze B., Pepino., Ponak E. et Podesta M. as described in Atherosclerosis, Vol. 20 (1974), p. 263-280 (Experimental Atherogenesis in the Wistar Rat).
(§1) Female rats of Wistar strain, free of specific pathogenic germs (EOPS) stemming from the breeding EVIC-CEBA
Mean body weight: 160-180 g at the start of the test
Diet: standard tablets UAE AO 3 enriched in cholesterol (0.5%) and in cholic acid (0.5).
15 animals per each batch and by cage in MACROLON (Safi) of 59 cm×38 cm, 5 cm filled with a litter of shavings of wood.
(§2) Diet of the animals: the animals were given the atheromatogenous regimen then while maintaining the same regimen, they were given for 4 days 250,000 IU/kg of vitamin D2 dissolved in olive oil (Sterogyl 15H). The compounds to be tested were given thereafter for 4 weeks immediately after the termination of the atheromatogenous regimen.
At the end of these studies the following tests were performed on all surviving animals.
Esterified blood cholesterol
Cholesterol in LDL (estimate)
The total score for each product was obtained by adding each individual scores and allowed the following classification
The protection against the atheromatogenous risk was evaluated using the following ratios: […]

[3] = system: female rats of Wistar strain; assay: Tolerance, mortality and body weight in the rat atheroma study; details: 100 mg/kg
Text: as §1, §2
The behavior and the changes in weight of the animals were surveyed every day as well as by weekly weighing.

Compound: COc1ccc(C(=O)CC2(O)C(=O)c3ccccc3C2=O)cc1OC [Compound of the invention, 2-[(3,4-dimethoxy-benzoyl)-methyl]-2-hydroxy-1,3-dioxo Indane]
- Dose dependence of hypolipaemiant activity ([1]; 6 hours after TRITON WR 1339): directly proportional to the doses
- Dose dependence of hypolipaemiant activity ([1]; 24 hours after TRITON WR 1339): inversely proportional to the dose
- Total Score vs 250 mg/kg Procetofene ([1]; 6 hours after, 125 mg/kg oral): 2.75
- Total cholesterol score vs 250 mg/kg Procetofene ([1]; 6 hours after, 125 mg/kg oral): 2.44
- Triglycerids score vs 250 mg/kg Procetofene ([1]; 6 hours after, 125 mg/kg oral): 0.31
- Cholesterol HDL/LDL score vs 250 mg/kg Procetofene ([1]; 6 hours after, 250 mg/kg oral): 0.87
- Total Score vs 250 mg/kg Procetofene ([1]; 6 hours after, 250 mg/kg oral): 3.74
- Total cholesterol score vs 250 mg/kg Procetofene ([1]; 6 hours after, 250 mg/kg oral): 1.15
- Total lipids score vs 250 mg/kg Procetofene ([1]; 6 hours after, 250 mg/kg oral): 0.92
- Triglycerids score vs 250 mg/kg Procetofene ([1]; 6 hours after, 250 mg/kg oral): 0.80
- Cholesterol HDL/LDL score vs 250 mg/kg Procetofene ([1]; 6 hours after, 500 mg/kg oral): 2.00
- Total Score vs 250 mg/kg Procetofene ([1]; 6 hours after, 500 mg/kg oral): 4.95
- Total cholesterol score vs 250 mg/kg Procetofene ([1]; 6 hours after, 500 mg/kg oral): 0.35
- Total lipids score vs 250 mg/kg Procetofene ([1]; 6 hours after, 500 mg/kg oral): 1.00
- Triglycerids score vs 250 mg/kg Procetofene ([1]; 6 hours after, 500 mg/kg oral): 1.60
- Total Score vs 250 mg/kg Procetofene ([1]; 6 hours after, 750 mg/kg oral): 1.72
- Total cholesterol score vs 250 mg/kg Procetofene ([1]; 6 hours after, 750 mg/kg oral): 0.78
- Total lipids score vs 250 mg/kg Procetofene ([1]; 6 hours after, 750 mg/kg oral): 0.14
- Triglycerids score vs 250 mg/kg Procetofene ([1]; 6 hours after, 750 mg/kg oral): 0.80
- Cholesterol HDL/LDL score vs 250 mg/kg Procetofene ([1]; 24 hours after, 125 mg/kg oral): 1.40
- Total Score vs 250 mg/kg Procetofene ([1]; 24 hours after, 125 mg/kg oral): 1.94
- Total cholesterol score vs 250 mg/kg Procetofene ([1]; 24 hours after, 125 mg/kg oral): 0.28
- Triglycerids score vs 250 mg/kg Procetofene ([1]; 24 hours after, 125 mg/kg oral): 0.26
- Cholesterol HDL/LDL score vs 250 mg/kg Procetofene ([1]; 24 hours after, 250 mg/kg oral): 1.10
- Total Score vs 250 mg/kg Procetofene ([1]; 24 hours after, 250 mg/kg oral): 4.64
- Total cholesterol score vs 250 mg/kg Procetofene ([1]; 24 hours after, 250 mg/kg oral): 1.13
- Total lipids score vs 250 mg/kg Procetofene ([1]; 24 hours after, 250 mg/kg oral): 1.56
- Triglycerids score vs 250 mg/kg Procetofene ([1]; 24 hours after, 250 mg/kg oral): 0.85
- Cholesterol HDL/LDL score vs 250 mg/kg Procetofene ([1]; 24 hours after, 500 mg/kg oral): 0.80
- Total Score vs 250 mg/kg Procetofene ([1]; 24 hours after, 500 mg/kg oral): 3.66
- Total cholesterol score vs 250 mg/kg Procetofene ([1]; 24 hours after, 500 mg/kg oral): 0.75
- Total lipids score vs 250 mg/kg Procetofene ([1]; 24 hours after, 500 mg/kg oral): 1.62
- Triglycerids score vs 250 mg/kg Procetofene ([1]; 24 hours after, 500 mg/kg oral): 0.49
- Cholesterol HDL/LDL score vs 250 mg/kg Procetofene ([1]; 24 hours after, 750 mg/kg oral): 0.40
- Total Score vs 250 mg/kg Procetofene ([1]; 24 hours after, 750 mg/kg oral): 1.73
- Total cholesterol score vs 250 mg/kg Procetofene ([1]; 24 hours after, 750 mg/kg oral): 0.61
- Triglycerids score vs 250 mg/kg Procetofene ([1]; 24 hours after, 750 mg/kg oral): 0.72
- minimal effective dose ([1]; Rattus norvegicus, TRITON WR 1339, rats, oral, read-out: Oral dose from which hyperlipaemia was antagonized or decreased): ≥ 125 mg/kg
- Antihyperlipaemiant activity, compound vs Procetofene ([1]; same doses (250 and 500 mg/kg)): antihyperlipaemiant activity about equal
- Cholesterol in LDL / Cholesterol in HDL, % in comparison with Controls-Diet ([2]; 100 mg/kg): -36.10%
- Total Blood Cholesterol / Cholesterol in HDL, % in comparison with Controls-Diet ([2]; 100 mg/kg): -33.22%
- Cholesterol in HDL, variation in comparison to controls-Diet ([2]; 100 mg/kg, 4 weeks): -33.33%
- Esterified cholesterol, variation in comparison to controls-Diet ([2]; 100 mg/kg, 4 weeks): -57.70%
- Total Blood lipids, variation in comparison to controls-Diet ([2]; 100 mg/kg, 4 weeks): -48.47%
- Total blood cholesterol, variation in comparison to controls-Diet ([2]; 100 mg/kg, 4 weeks): -55.47%
- Triglycerids, variation in comparison to controls-Diet ([2]; 100 mg/kg, 4 weeks): -25.86%
- Cholesterol in LDL, variation in comparison to controls-Diet ([2]; 100 mg/kg, 4 weeks, LDL (estimate)): -57.41%
- Atheromatous risk total score ([2]; 100 mg/kg, listed as Compound according to this invention): 0.90
- Atheromatous risk total score ([2]; 100 mg/kg, listed as Compound of this invention): 0.90
- Activity on the biochemical level vs Clofibrate ([2]; same doses, cholesterol-rich diet): as active as Clofibrate on the biochemical level
- Mortality compared with batch No. 2 (2/15) ([3]; 4 weeks, atheromatogenous regimen): did not increase it
- Tolerance compared with Clofibrate ([3]; rat, in vivo): better tolerated
